This note sets out measurements from US6548505B1, “Radioprotectors” (Peter MacCallum Cancer Institute, priority 1995, dated 2003).

The test system of data set [1] is V79 cells. Briefly: Cytotoxicity, clonogenic survival of V79 cells without irradiation. The protocol:
(§1) Monolayers of V79 cells were maintained in 25 cm^2 Falcon plastic flasks in alpha-MEM medium with 10% foetal calf serum (FCS). Log phase cultures were treated by adding the required amount of Hoechst 33258, Hoechst 33342 or para dimethylamino Hoechst (25-500 nmoles) dissolved in 50 μL 10 μM acetic acid in 50% methanol. The flasks were inverted immediately prior to adding the compound to ensure complete mixing of the compound with the medium, before contact with the monolayer.
(§2) After 2 hours incubation at 37° C., the cells were harvested and assayed for clonogenic survival. […] All clonogenic survival results are expressed relative to the untreated controls.
(§3) Hoechst 33258, Hoechst 33342 or para dimethylamino Hoechst was added to the media of monolayers of V79 cells, to the indicated final concentrations. […] All cultures were held for a further one hour prior to plating for clonogenic survival.

Data set [2] concerns V79 cells. The data set is described as follows: Radioprotection, clonogenic survival of irradiated V79 cells. The format is cell-based. To be noted: for Protector plus irradiation (12 Gy), survival fraction relative to untreated control cells / Protection Factor: 12 Gy; for Protection Factor: ratio of survival fractions with and without protector. The procedure: as §1, §2
Cultures were irradiated in a 137Cs Gammacell-40 (Atomic Energy of Canada Ltd.) at a dose rate of 0.84 Gy/min. Ligand-treated cells were irradiated two hours after starting the exposure to the ligand. In all cases, the clonogenic survival was delayed until one hour after completion of irradiation.
as §3
Mono layer cultures of V79 cells were exposed to various concentrations of the three radioprotectors, as described in (a) above. After two hours, the cells were chilled and kept cold during the isolation of nuclei, using 0.08% w.v Triton X-100. After counting an aliquot of the nuclear suspension, the ligands were extracted and quantitated by spectrophotometry and the nuclear content calculated. The survival results shown in the lower part of FIG. 1 were replotted using the nuclear uptake data and the results are shown in FIG. 2.
The first three columns show survival fraction relative to that for untreated control cells. Each row represents a separate experiment and the figures are the means of duplicates. The figures in square brackets is the mean of a number of the results of a number of experiments done over the relevant period. The protection factor is the ratio of survival fractions for irradiated cells, with and without protector.
A number of bibenzimidazoles represented by formula (I) have been synthesised and assayed for radioprotective activity in cell culture. Assays were conducted using V79 fibroblasts and involved exposure of the cells to a single radiation dose (12Gy) and comparison of the clonogenic survival with and without the inclusion of the protector in the cell culture medium. The ratio of the survival fractions (with protector/without), designated the protection ratio (PR12Gy), provides a measure of the extent of radioprotection. The experimental protocol adopted was as in Example 12.

The test system of a further data set is pig skin. Briefly: Pig skin studies, topical radioprotector cream. The format is in vivo. To be noted: 36 Gy, cream 0.15 g/field, 5000 μg/g. An excerpt: The pig skin model is described by J. W. Hopewell^4. The structural similarities between human and pig skin underlie the relevance of the model.
Although some pig skin studies involve external beam irradiation, a particularly convenient radiation source is discs containing β-emitting isotopes, typically ^90Sr. The sources can be held to the skin, or for higher doses, taped to the animal, for appropriate periods of time to deliver the required dose. The discs are typically about 2 cm in diameter so that an array of different doses can be arranged on the flanks of a single animal.
The “acute” reactions (3-9 weeks after irradiation) result from radiation damage to the basal cells of the epidermis, and are manifest as erythema, and dry and moist desquamation. The “late” reactions (10-16 weeks) results from radiation effects to the dermal vascular connective tissue, characterized by a dusky mauve erythema and necrosis. The scoring system is well described.
The radioprotectors were formulated in a propylene glycol cream containing 10% DMSO. The extent and kinetics of penetration were followed by fluorescence microscopy of frozen skin sections, to enable optimization of delivery.
Radiation dose response curves were constructed for radiation only fields. The results of fields with radioprotector creams are shown in Table 3 below, with the respective cream (vehicle) only controls. The decrease in extent of skin reaction for the test fields is evident.

In data set [3] the test system is Chinese Hamster Ovary (CHO) fibroblasts. Briefly: Radioprotection survival curves of cultured CHO cells (FIG. 7, Table 5). The format is cell-based. As to conditions: 20 μM, ratio of doses reducing survival to 10% of control. An excerpt:
where S is the survival fraction at dose D Gy, and α and β are constants.
The fitted values of α and β were used to calculate the radiation doses (D0.1) corresponding to a survival fraction of 0.1. The ratio of the D0.1 values with and without protector, then provided the Dose Modification Factor (DMF) for each compound:
DMF=D0.1(with protector)/D0.1(without)

Values joined by “and” are separate entries in the source; they are usually repeats but may differ in a detail not shown here. Equal values may be shown once.

Regarding `CN1CCN(c2ccc3[nH]c(-c4ccc5[nH]c(-c6ccc(N(C)C)cc6)nc5c4)nc3c2)CC1` [Compound 1, 4Dimethylamino-1-[5′-{5′″-(4′″-methylpiperazin-1′″-yl)benzimidazol-2″-yl]benzimidazol-2′-yl}benzene], the “concentration up to which there is no effect on survival” value in the data set on V79 cells [1] (V79 cells, no irradiation, clonogenic survival, FIG. 1) is recorded as “up to 100 μM”. In the data set on V79 cells [2] (V79, 84 μM, survival curves FIG. 3), the DMF turned out to be 1.7. The “Protection ratio 12Gy, Exp 8” value was found to be 5.1 in the data set with V79 cells [2] (V79, 12Gy 137Cs-γ, 20 μM); 7.7 with V79 cells [2] (V79, 12Gy 137Cs-γ, 40 μM); 8.0 with V79 cells [2] (V79, 12Gy 137Cs-γ, 50 μM). Also, the “radioprotective potency, survival after 12Gy in terms of nuclear content of the radioprotector” value with V79 cells [2] (V79 cells, 12Gy, uptake per 10^6 nuclei, FIG. 2) is listed as “more potent radioprotector”. In the data set with pig skin, the “Fields showing moist desquamation (10 weeks post-Irr.) #” value is reported as 4/7. In addition, in the data set on pig skin, the “Fields showing moist desquamation (10 weeks post-Irr.) %” value stood at 57%.

In the case of `CN1CCN(c2ccc3[nH]c(-c4ccc5[nH]c(-c6ccc([N+](=O)[O-])cc6)nc5c4)nc3c2)CC1` [para nitro Hoechst, reference compound], the “Protector only (no irradiation), survival fraction relative to untreated control cells” value with V79 cells [1] (20 μM) is given as 0.89. Moreover, in the data set with V79 cells [2] (20 μM), the “Protector plus irradiation (12 Gy), survival fraction relative to untreated control cells” value was determined as 0.011 and the “Protection Factor” value is “[0.5]*”.

`CCOc1ccc(-c2nc3cc(-c4nc5cc(N6CCN(C)CC6)ccc5[nH]4)ccc3[nH]2)c(C)c1` [Compound 6, 4-Ethoxy-2-methyl{5′-[5″(4′″-methylpiperazin-1′″-yl)benzimidazol-2″-yl]benzimidazol-2′-yl}benzene]: the “Protection ratio 12Gy, Exp 3” value in the data set on V79 cells [2] (V79, 12Gy 137Cs-γ, 20 μM) is listed as 8.0.

For `CCOc1ccc(-c2cc3ccc(-c4nc5cc(N6CCN(C)CC6)ccc5[nH]4)cc3[nH]2)cc1` [Compound 10, 4-Ethoxy-1-{6′-[5″-(4′″-methylpiperazin-1′″-yl)benzimidazol-2″-yl]indol-2′-yl}benzene], the “Protection ratio 12Gy, Exp 9” value in the data set on V79 cells [2] (V79, 12Gy 137Cs-γ, 20 μM) is listed as 1.5; in the data set with V79 cells [2] (V79, 12Gy 137Cs-γ, 40 μM) it was 1.4.

`CN1CCN(c2ccc3[nH]c(-c4ccc5[nH]c(-c6cccc(N(C)C)c6)nc5c4)nc3c2)CC1` [Compound 9, 3-N,N-Dimethylamino-1-{5′-[5″-(4′″-methylpiperazin-1′″-yl)benzimidazol-2″-yl]benzimidazol-2′-yl}benzene]: the “Protection ratio 12Gy, Exp 6” value in the data set with V79 cells [2] (V79, 12Gy 137Cs-γ, 20 μM) came to 3.6. In the data set on V79 cells [2] (V79, 12Gy 137Cs-γ, 30 μM), the “Protection ratio 12Gy, Exp 7” value was 7.6. The “Protection ratio 12Gy, Exp 7” value in the data set with V79 cells [2] (V79, 12Gy 137Cs-γ, 40 μM) came out at 7.2. Besides, in the data set with V79 cells [2] (V79, 12Gy 137Cs-γ, 50 μM), the “Protection ratio 12Gy, Exp 1” value is listed as 9.7; the “Protection ratio 12Gy, Exp 2” value is listed as 9.5; the “Protection ratio 12Gy, Exp 7” value was 8.2.

In the case of `CCOc1ccc(-c2nc3cc(-c4nc5cc(N6CCN(C)CC6)ccc5[nH]4)ccc3[nH]2)c(C(C)C)c1` [Compound 7, 4-Ethoxy-2i-propyl-1-{5′-[5″-(4′″-methylpiperazin-1′″-yl)benzimidazol-2′-yl]benzimidazol-2′-yl}benzene], the “Protection ratio 12Gy, Exp 4” value is on record as 10.8 with V79 cells [2] (V79, 12Gy 137Cs-γ, 20 μM); 10.4 in the data set with V79 cells [2] (V79, 12Gy 137Cs-γ, 30 μM); 14.2 with V79 cells [2] (V79, 12Gy 137Cs-γ, 40 μM). Further, the “Protection ratio 12Gy, Exp 5” value with V79 cells [2] (V79, 12Gy 137Cs-γ, 30 μM) worked out at 11.3; with V79 cells [2] (V79, 12Gy 137Cs-γ, 40 μM), 13.2; with V79 cells [2] (V79, 12Gy 137Cs-γ, 50 μM), 15.2. The DMF in data set [3] was 1.42.

As for `CN(C)c1ccc(-c2nc3cc(-c4nc5cc(N6CCCCC6)ccc5[nH]4)ccc3[nH]2)cc1` [Compound 2, 4-Dimethylamino-1-{5′-[5″-(piperidin-1′″-yl)benzimidazol-2″-yl]benzimidazol-2′-yl}benzene], the “Protector only (no irradiation), survival fraction relative to untreated control cells” value with V79 cells [1] (17 μM) was 0.89 and 0.81. Further, in the data set on V79 cells [2] (17 μM), the “Protector plus irradiation (12 Gy), survival fraction relative to untreated control cells” value is 0.062 and 0.059; the “Protection Factor” value was 2.8 and 2.7.
